From patent publication US9328078B2, “Benzofurazan anti-amyloid compounds and methods” (Treventis Corporation, priority 2012, dated 2016)

Assays:
Biotin-Aβ(1-42) = molecular target: T1, Biotin-Aβ(1-42) (Homo sapiens, UniProt P05067); assay: Biotin-Aβ(1-42) oligomeric assay; assay type: biochemical; conditions: inhibition of oligomer formation at 25 uM, 30 minutes; higher = more inhibition
T1 construct: Biotin-Aβ(1-42) (AnaSpec) at 0.2 mg/ml in hexafluoroisopropanol (HFIP); purchased AnaSpec
Protocol: The following assay was adapted from H. LeVine III. Biotin-avidin interaction-based screening assay for Alzheimer's β-peptide oligomer inhibitors, Anal. Biochem. 356 (2006) 265-272 and A. Frey, B. Meckelein, D. Externest, M. A. Schmidt A stable and highly sensitive 3,3′,5,5′-tetramethylbenzidine-based substrate reagent for enzyme-linked immunosorbent assays, J. Immunol. Methods 233 (2000) 47-56.
Biotin-Aβ(1-42) (AnaSpec) at 0.2 mg/ml in hexafluoroisopropanol (HFIP) was further diluted in 20 volumes of HFIP, which was then evaporated under a stream of argon. 20 volumes of trifluoroacetic acid was added and let rest for 10 minutes, then evaporated under a stream of argon. Another 20 volumes of HFIP was added and evaporated under a stream of argon. Biotin-Aβ(1-42) was brought to a final concentration of 2.3 mg/ml in DMSO. Oligomer formation was initiated in 96 well round bottom polypropylene plates by diluting the prepared biotin-Aβ(1-42) 50× in 20 mM sodium phosphate pH 7.5, 150 mM NaCl in the presence of vehicle or compound. Oligomer formation was halted after 30 minutes by the addition of 50 μl/well of 0.3% Tween-20.
96 well Costar high-binding microplates were coated overnight at +4° C. with 50 μl/well of 1 ug/ml NeutrAvidin (ThermoScientific) in 10 mM sodium phosphate, pH 7.5. Plates were blocked for 2 hours at room temperature with 200 μl/well 20 mM sodium phosphate pH 7.5, 150 mM NaCl, 0.1% Tween-20. The oligomer preparation was transferred at 50 μl/well to the blocked plate and incubated for 2 hours at room temperature with shaking at 150 rpm. The plate was then washed three times with 200 μl/well 20 mM tris-HCl pH 7.5, 34 mM NaCl, 0.1% Tween-20 (TBS-T). Streptavidin-HRP (Rockland Immunochemicals) [1:20,000] in 20 mM sodium phosphate pH 7.5, 150 mM NaCl, 0.1% Tween-20 was added at 50 μl/well and incubated in the dark at room temperature for 1 hour with shaking at 150 rpm. The plate was washed three times with 200 μl/well of TBS-T. Tetramethylbenzidine/H2O2 substrate was prepared by mixing 250 μl of 41 mM 3,3′,5,5′-tetramethylbenzidine, 8.2 mM tetrabutylammonium borohydride in dimethylacetamide with 10 ml of 205 mM K3 citrate pH 4.0, 3.075 mM H2O2 and incubating for 15 minutes at room temperature. Prepared substrate solution was added at 100 μl/well and the reaction was allowed to proceed for 15 minutes, after which it was terminated by the addition of 100 μl/well of 1% H2SO4. The OD450nm was determined using a Tecan Infinite F200 plate reader.

Aβ40 = Aβ40 (Homo sapiens, UniProt P05067); assay: kinetic ThT assay for Aβ aggregation; assay type: biochemical; conditions: DMSO control at 80 hr = 0% inhibition, parenthesis = compound 1027
Protocol: Aβ40 (1.0 mg) was pre-treated in a 1.5 mL microfuge tube with HFIP (1 mL) and sonicated for 20 min to disassemble any pre-formed Aβ aggregates. The HFIP was removed with a stream of argon and the Aβ dissolved in Tris base (5.8 mL, 20 mM, pH˜10). The pH was adjusted to 7.4 with concentrated HCl (˜10 μL) and the solution filtered using a syringe filter (0.2 μm) before being used.
The kinetic ThT assay for AP aggregation is similar to that of Chalifour et al (Chalifour et al, 2003, J. Biol. Chem. 278:34874-81). Briefly, pre-treated Aβ40 or Aβ42 (40 μM in 20 mM Tris, pH 7.4) was diluted with an equal volume of 8 μM Thioflavin T (ThT) in Tris (20 mM, pH 7.4, 300 mM NaCl). Aliquots of Aβ/ThT (200 μL) were added to wells of a black polystyrene 96-well plate, followed by 2 μL of a compound in DMSO (variable concentration), or DMSO alone (controls). Incubations were performed in triplicate and were taken to contain 20 μM Aβ, various concentration of compound in 20 mM Tris, pH 7.4, 150 mM NaCl, 1% DMSO. Plates were covered with clear polystyrene lids and incubated at 37° C. in a Tecan Genios microplate reader.
Fluorescence readings (λex=450 nm, λem=480 nm) were taken every 15 min., after first shaking at high intensity for 15 s and allowing to settle for 10 s before each reading. Active compounds attenuated the increase in fluorescence over time that occurred in controls. In FIGS. 1-7, the time this procedure was performed extended to 80 hours (rightmost part of X-axis), at which point fluorescence increase generally reached an asymptote. Applying a definition of DMSO control at 80 hr as 100% aggregation (0% inhibition) and DMSO control at 0 hr as 0% aggregation (100% inhibition), a % inhibition score where higher is better can be calculated for a given concentration of compound. By repeating this procedure over several concentrations, a […] (IC50) can be measured, as is given in the table below for some compounds.
Data is summarized in the table below; numbers given in parenthesis are the values in that particular experiment for compound ID 1027, given as the first entry in this table for comparison.

Aβ40, sequence (P05067 672-711 limits assumed, species assumed): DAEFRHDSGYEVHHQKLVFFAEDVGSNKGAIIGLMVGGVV
T1 sequence (P05067 672-713 limits assumed): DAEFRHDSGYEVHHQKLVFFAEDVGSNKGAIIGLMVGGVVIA

CN(C)C1CCN(c2cc(-c3cccc(C(O)C(F)(F)F)c3)cc3nonc23)CC1 (stereo not drawn) [TRV-1466] gave an inhibition at 25 µM (Biotin-Aβ(1-42)) of 72%, an inhibition at 5 µM (Aβ40; 80 h, compound 5 μm, read-out: % inhib Aβ 40 (5 μm)) of 36.9% and an inhibition at 10 µM (Aβ40; compound 10 μM, read-out: % inhib Aβ 40 10 μM) of 49%.
